Experimental data taken from ChEMBL document CHEMBL5038659, “Discovery of the First Examples of Threonine Tyrosine Kinase PROTAC Degraders” (J Med Chem, 2022).

How the values were obtained:
[1] = molecular target: T1, Dual specificity protein kinase TTK (Homo sapiens, UniProt P33981); assay: Binding affinity to human TTK expressed in bacterial expression system assessed as dissociation constant at 100 nM by biochemical assay
T1 sequence (P33981 whole entry): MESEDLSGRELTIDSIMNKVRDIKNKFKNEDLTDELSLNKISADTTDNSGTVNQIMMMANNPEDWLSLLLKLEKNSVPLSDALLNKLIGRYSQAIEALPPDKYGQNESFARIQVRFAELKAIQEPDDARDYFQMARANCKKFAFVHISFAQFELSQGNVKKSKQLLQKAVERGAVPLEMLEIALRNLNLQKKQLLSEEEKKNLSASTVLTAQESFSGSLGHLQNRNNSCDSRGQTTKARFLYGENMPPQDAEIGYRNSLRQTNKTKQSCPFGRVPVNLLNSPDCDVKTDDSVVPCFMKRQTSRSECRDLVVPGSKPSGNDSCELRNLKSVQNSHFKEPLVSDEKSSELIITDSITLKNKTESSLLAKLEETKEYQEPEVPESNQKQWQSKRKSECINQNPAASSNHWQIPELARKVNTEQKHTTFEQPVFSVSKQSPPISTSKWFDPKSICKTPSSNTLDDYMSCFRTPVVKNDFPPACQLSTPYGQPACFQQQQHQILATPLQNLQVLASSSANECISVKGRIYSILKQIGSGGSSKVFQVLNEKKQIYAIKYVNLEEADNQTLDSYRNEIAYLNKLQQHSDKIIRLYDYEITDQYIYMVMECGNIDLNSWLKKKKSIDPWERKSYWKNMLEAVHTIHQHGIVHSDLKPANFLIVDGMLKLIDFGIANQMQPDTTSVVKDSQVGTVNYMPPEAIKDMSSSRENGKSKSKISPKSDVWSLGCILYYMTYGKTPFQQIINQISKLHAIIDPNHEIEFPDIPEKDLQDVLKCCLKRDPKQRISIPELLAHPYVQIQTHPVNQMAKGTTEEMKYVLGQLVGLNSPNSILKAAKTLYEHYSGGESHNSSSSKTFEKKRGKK

COLO 205 = assay: Antiproliferative against human COLO 205 cells assessed as cell viability after 4 days by CCK-8 assay; format: functional, cell-based; conditions: COLO 205, 96 h

Kd [1]: 0.7 nM | IC50 (COLO 205): 800 nM
Compound: CCC(=O)N[C@H]1CC[C@@H](n2c(=O)cc(C)c3cnc(Nc4ccc(N5CCN(C)CC5)cc4OC)nc32)CC1
